Measurements as given in PMC9501899 (Journal of the American Chemical Society, 2022).

Molecular target: T1, LRRK2 (Mus musculus, UniProt Q5S006)
T1 construct: endogenous in cells; host or cells: mouse bone marrow-derived macrophages
Assay: LRRK2 degradation in bone marrow-derived macrophages (BMDMs)
Assay type: cell-based
Conditions: 4 h
Excerpt: The relative LRRK2 protein and pRab10 levels were obtained by quantifying the ratios of total LRRK2/GAPDH or Rab10-pThr73/total Rab10, respectively, and the ratios were normalized to the DMSO-treated samples. The relative LRRK2 and pRab10 protein levels were plotted against the compound concentration and fitted against “nonlinear regression, one site-fit log IC50” in GraphPad to obtain the DC50 and EC50 values. Data points are presented as mean ± standard error of the mean (SEM) from three biological independent replicates. […] The relative LRRK2 protein and pRab10 levels were obtained by quantifying the ratios of total LRRK2/ GAPDH or Rab10-pThr73/total Rab10, respectively, and the ratios were normalized to the DMSO-treated samples. The relative LRRK2 and pRab10 protein levels were plotted against the treatment time and were fitted against “nonlinear regression, one-phase decay” in GraphPad to obtain the half-life (T1/2) values. Data points are presented as mean ± SEM from three biological independent replicates. […] The relative LRRK2 levels were obtained by quantifying the ratios of total LRRK2/tubulin and normalized to the DMSO-treated samples. The relative LRRK2 levels were plotted against the compound concentration and fitted against “nonlinear regression, one site-fit log IC50” in GraphPad to obtain the DC50 values.
Bone marrow isolation and macrophage differentiation were modified from ref ([81]), employing an L929 preconditioned medium as the source of M-CSF for differentiation. Briefly, scissors and forceps were used to dissect femurs and tibiae from adult mice, and muscle tissues were carefully removed from bones. Clean femurs and tibiae were placed in a tissue culture dish containing complete media. The ends of each bone were cut with scissors to expose the bone marrow. […] The cell suspension was counted, and cells were seeded for experimental analysis in a six-well format in tissue culture-treated dishes at a final cell density of one million cells per well of a six-well plate. […]

T1 sequence (Q5S006 whole entry): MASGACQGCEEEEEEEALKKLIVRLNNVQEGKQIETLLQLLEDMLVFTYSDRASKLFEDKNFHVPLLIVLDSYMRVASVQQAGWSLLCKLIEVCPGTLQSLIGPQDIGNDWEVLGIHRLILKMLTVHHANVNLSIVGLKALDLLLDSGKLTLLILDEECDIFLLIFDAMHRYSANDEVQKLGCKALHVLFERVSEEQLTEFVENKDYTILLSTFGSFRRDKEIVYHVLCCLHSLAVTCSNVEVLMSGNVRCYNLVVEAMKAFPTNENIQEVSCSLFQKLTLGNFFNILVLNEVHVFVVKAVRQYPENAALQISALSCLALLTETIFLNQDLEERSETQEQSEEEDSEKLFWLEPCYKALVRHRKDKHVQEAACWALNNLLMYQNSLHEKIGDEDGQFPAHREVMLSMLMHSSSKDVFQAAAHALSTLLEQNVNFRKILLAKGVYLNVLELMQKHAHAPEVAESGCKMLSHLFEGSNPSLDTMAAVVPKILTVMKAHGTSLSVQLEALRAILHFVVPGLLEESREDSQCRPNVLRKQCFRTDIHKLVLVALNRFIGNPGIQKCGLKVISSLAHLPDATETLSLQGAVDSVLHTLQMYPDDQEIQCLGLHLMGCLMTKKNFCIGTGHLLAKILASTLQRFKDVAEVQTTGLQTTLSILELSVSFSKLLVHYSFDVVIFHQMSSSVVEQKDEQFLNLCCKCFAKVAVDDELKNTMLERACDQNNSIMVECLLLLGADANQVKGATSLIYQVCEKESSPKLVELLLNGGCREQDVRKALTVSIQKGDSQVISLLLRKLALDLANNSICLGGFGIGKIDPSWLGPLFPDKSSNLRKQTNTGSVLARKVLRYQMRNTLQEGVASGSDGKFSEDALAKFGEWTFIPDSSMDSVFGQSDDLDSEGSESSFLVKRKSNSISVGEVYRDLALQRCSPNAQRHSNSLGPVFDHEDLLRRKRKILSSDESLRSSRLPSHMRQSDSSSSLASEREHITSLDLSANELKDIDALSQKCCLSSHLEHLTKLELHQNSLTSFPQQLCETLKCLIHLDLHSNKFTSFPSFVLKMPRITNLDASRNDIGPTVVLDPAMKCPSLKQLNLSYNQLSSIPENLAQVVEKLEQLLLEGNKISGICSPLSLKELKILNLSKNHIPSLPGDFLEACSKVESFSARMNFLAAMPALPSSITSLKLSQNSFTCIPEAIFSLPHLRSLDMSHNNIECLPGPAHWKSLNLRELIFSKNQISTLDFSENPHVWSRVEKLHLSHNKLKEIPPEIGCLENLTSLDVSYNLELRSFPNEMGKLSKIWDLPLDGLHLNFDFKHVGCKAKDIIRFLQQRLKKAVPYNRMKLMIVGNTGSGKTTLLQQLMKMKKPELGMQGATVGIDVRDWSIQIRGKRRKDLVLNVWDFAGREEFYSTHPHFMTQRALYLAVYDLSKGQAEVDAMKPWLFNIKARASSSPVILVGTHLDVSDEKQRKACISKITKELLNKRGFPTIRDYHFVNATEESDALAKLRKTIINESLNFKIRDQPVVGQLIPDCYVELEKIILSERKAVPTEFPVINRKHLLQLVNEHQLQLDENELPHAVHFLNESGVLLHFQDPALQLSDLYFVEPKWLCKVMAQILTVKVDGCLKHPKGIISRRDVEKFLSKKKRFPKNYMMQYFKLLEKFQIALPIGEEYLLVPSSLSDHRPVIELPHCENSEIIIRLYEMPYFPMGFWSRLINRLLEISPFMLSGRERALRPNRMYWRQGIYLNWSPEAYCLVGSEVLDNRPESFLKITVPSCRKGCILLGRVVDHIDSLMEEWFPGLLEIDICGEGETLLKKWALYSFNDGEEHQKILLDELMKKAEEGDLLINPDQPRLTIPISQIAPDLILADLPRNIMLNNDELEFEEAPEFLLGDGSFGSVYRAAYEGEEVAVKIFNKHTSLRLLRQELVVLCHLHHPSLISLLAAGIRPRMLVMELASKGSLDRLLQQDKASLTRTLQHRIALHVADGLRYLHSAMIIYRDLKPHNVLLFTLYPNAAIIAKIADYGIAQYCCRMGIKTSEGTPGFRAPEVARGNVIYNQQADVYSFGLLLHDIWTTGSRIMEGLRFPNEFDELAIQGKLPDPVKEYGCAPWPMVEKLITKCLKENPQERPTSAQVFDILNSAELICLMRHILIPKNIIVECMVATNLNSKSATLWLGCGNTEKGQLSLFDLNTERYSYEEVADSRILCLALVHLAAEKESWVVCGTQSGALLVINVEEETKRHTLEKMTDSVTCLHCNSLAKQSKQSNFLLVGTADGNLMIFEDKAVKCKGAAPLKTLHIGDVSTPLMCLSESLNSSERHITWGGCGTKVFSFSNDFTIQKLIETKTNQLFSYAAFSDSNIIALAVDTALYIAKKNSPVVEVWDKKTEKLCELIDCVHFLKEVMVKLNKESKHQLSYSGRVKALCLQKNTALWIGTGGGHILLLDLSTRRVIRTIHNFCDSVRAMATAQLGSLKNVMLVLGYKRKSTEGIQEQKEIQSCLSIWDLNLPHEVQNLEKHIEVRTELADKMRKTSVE

Structure (SMILES)	Dmax (BMDM)	DC50s (LRRK2)	Dmax (LRRK2)
CNc1nc(Nc2ccc(C(=O)N3CCN(C[C@H]4CC[C@H](CSC(C)(C)[C@H](NC(=O)C5(F)CC5)C(=O)N5C[C@H](O)CC5C(=O)NCc5ccc(-c6scnc6C)cc5)CC4)CC3)cc2OC)ncc1Cl (stereo partly drawn) [XL01126, (2S,4R)-1-((R)-3-((((1R,4R)-4-((4-(4-((5-Chloro-4-(methylamino)pyrimidin-2-yl)amino)-3-methoxybenzoyl)piperazin-1-yl)methyl)cyclohexyl)methyl)thio)-2-(1-fluorocyclopropane-1-carboxamido)-3-methylbutanoyl)-4-hydroxy-N-(4-(4-methylthiazol-5-yl)benzyl)pyrrolidine-2-carboxamide]	83%		
CNc1nc(Nc2ccc(C(=O)N3CCN(C[C@H]4CC[C@H](CSC(C)(C)[C@H](NC(=O)C5(F)CC5)C(=O)N5C[C@@H](O)C[C@H]5C(=O)NCc5ccc(-c6scnc6C)cc5)CC4)CC3)cc2OC)ncc1Cl [cis-XL01126, (2S,4S)-1-((R)-3-((((1R,4R)-4-((4-(4-((5-Chloro-4-(methylamino)pyrimidin-2-yl)amino)-3-methoxybenzoyl)piperazin-1-yl)methyl)cyclohexyl)methyl)thio)-2-(1-fluorocyclopropane-1-carboxamido)-3-methylbutanoyl)-4-hydroxy-N-(4-(4-methylthiazol-5-yl)benzyl)pyrrolidine-2-carboxamide]		NDO	NDO
